The test system of one series is P. aeruginosa MB5002. Nature of the series: in vitro antibacterial activity by agar plate dilution method (MIC). Type of series: cell-based. The following applies: Pseudomonas aeruginosa, read-out: Minimum Inhibitory Concentration (MIC). The method, then: (§1) One platinum loopful of each test microorganism incubated overnight in Mueller Hinton broth, was inoculated to Mueller Hinton agar (inoculum size: 10^6 CFU/ml). Such culture media contained antibacterial agents in various concentrations. After incubation at 37° C. for 16 hours, the minimum inhibitory concentrations (MIC: μg/ml) were measured.
(§2) The minimum inhibitory concentrations and the DHP-I susceptibility of the compounds of the present invention were compared with imipenem and the compound of REFERENCE EXAMPLE 13.

In a further series the test system is P. aeruginosa MB5178. The series is described as above. The class given is cell-based. The following applies: Pseudomonas aeruginosa, MB5178, 16 h, read-out: Minimum Inhibitory Concentration (MIC). The method, then: as §1, §2
The test system of series [1] is renal dehydropeptidase I (DHP-I). Nature of the series: DHP-I susceptibility (method by Kropp et al.), ratio to imipenem. Type of series: in vitro ADME. Particulars: ratio to imipenem (=1.0); the smaller the value, the higher the stability.
Description: Further, the DHP-I susceptibility was quantitatively analyzed by the method by Kropp et al., Antimicrob. Agents Chemother., vol. 22, p. 62-70 (1982), whereby the smaller the numerical value representing the ratio to imipenem (=1.0), the higher the stability.
as §2

Series [2] can be described thus: Pharmacokinetics in mice after s.c. dosing, bioassay of plasma and urine. The following applies: mouse, sc, 20 mg/kg; for AUC / Cmax / Tmax / half-life: plasma; for dose excreted at 6 h: urine. The method, then: Pharmacokinetics in mice: Groups of three 20 g ddY male mice were given a single dose of 20 mg/kg of the compound of EXAMPLE 19 and imipenem by sc route. One group of three mice was placed in a metabolism cage designed to collect the urine free from fecal contamination. At a specified time after dosing, blood and urine samples were collected from a group for bioassay. The plasma was collected from the pooled blood after centrifugation. Microbiological assays: Bioactivity in the specimens was measured was by the standard disk diffusion procedure using Bacillus subtilis ATCC12432 as a test organism.

Series [3] concerns various gram positive bacteria and gram negative bacteria. The following applies: cited from earlier work.
For series [4] the following is noted: imipenem compared with thienamycin; cited from earlier work.
A further series relates to Pseudomonas aeruginosa. Particulars: superior to thienamycin; cited from earlier work.
Series [5] relates to renal dehydropeptidase I (DHP-I). Particulars: cited from earlier work.
For series [6] the following is noted: due to the decomposition products; cited from earlier work.
Series [7] has as its system highly methicillin resistant Staphylococcus aureus which is resistant to imipenem and imipenem resistant Pseudomonas aeruginosa. The following applies: clinical field; cited from earlier work.
The conditions of series [8]: in vivo; cited from earlier work.
[9] abbreviates: P. aeruginosa MB5002, Mueller Hinton agar, inoculum 10^6 CFU/ml, 37° C., 16 hours.
Where [10] appears, read: P. aeruginosa MB5178, Mueller Hinton agar, inoculum 10^6 CFU/ml, 37° C., 16 hours.

In brackets after ≈: the same amount, converted by molar mass. Read-outs that look alike come from different tables or passages of the source.

On to `C[C@@H](O)[C@H]1C(=O)N2C(C(=O)O)=C(SCCN=CN)C[C@H]12` [Imipenem, (5R,6S,8R)-3-[[2-(formimidoylamino)ethyl]thio]-6-(1-hydroxyethyl)-7-oxo-1-azabicyclo[3.2.0]hept-2-en-2-carboxylic acid monohydrate], for which the MIC in the series on P. aeruginosa MB5002 (MB5002, 16 h) was determined as 1.56 µg/mL. The MIC with P. aeruginosa MB5178 worked out at 25 µg/mL. Moreover, in series [1], the DHP-I susceptibility is 1.0. In series [2], the AUC came to 9500 ng·h/mL, the concentration peaked (Cmax) at 21500 ng/mL, the time to peak (Tmax) was 10.8 min and the half-life is 7.2 min. For the same compound, the dose excreted at 6 h in series [2] is 21.5%. For the same compound, the “antibacterial activities compared with thienamycin” value in [3] (various types of bacteria) is listed as “equal or higher level than thienamycin”. Besides, the “stability in the solid form or in an aqueous solution” value in series [4] is on record as “remarkably improved over thienamycin”. Also, the “antibacterial activities compared with thienamycin” value in the series on Pseudomonas aeruginosa was 2 to 4 times. Moreover, the “decomposition by DHP-I” value in series [5] is on record as “likely to be decomposed by DHP-I in the human kidney”. The “toxicity against the kidney” value in series [6] is “presents toxicity against the kidney due to the decomposition products”. For the same compound, in series [7], the “treating effects against resistant bacteria” value is recorded as “does not show adequate treating effects”.

As to `C[C@@H](O)[C@H]1C(=O)N2C(C(=O)O)=C(S[C@@H]3CN[C@H](C(O)CN)C3)[C@H](C)[C@H]12` (single isomer, unassigned) [Example 13], the results for the MIC with P. aeruginosa MB5002 (setting [9]) and in the series with P. aeruginosa MB5178 (setting [10]) were 1.56 µg/mL (≈ 4.2 µM) and 3.13 µg/mL (≈ 8.43 µM), respectively.

On to `C[C@@H](O)[C@H]1C(=O)N2C(C(=O)O)=C(SCCN)C[C@H]12` [thienamycin], for which, in series [3] (statement in words, prior art), the antibacterial activities entry is “strong antibacterial activities over a wide range against gram positive bacteria and gram negative bacteria”. In [5], the “decomposition by DHP-I” value was “likely to be decomposed”. For the same compound, the “recovery rate in the urine” value in series [8] is “low”.

On to `CC(=O)NC[C@@H]1C[C@H](SC2=C(C(=O)O)N3C(=O)[C@H]([C@@H](C)O)[C@H]3[C@H]2C)CN1` [compound 13, (1R,5S,6S)-2-[(2S,4S)-2-(Acetylaminomethyl)pyrrolidin-4-ylthio]-6-[(1R)-1-hydroxyethyl]-1-methyl-1-carbapen-2-em-3-carboxylic Acid], for which the MIC in the series with P. aeruginosa MB5002 (setting [9]) came to 6.25 µg/mL (≈ 16.3 µM); in the series on P. aeruginosa MB5178 (setting [10]) it was 12.5 µg/mL (≈ 32.6 µM). Moreover, the DHP-I susceptibility in series [1] was found to be 0.7.

As to `CC(CN)C[C@@H]1C[C@H](SC2=C(C(=O)O)N3C(=O)[C@H]([C@@H](C)O)[C@H]3[C@H]2C)CN1` (single isomer, unassigned) [Example 7], the MIC in the series with P. aeruginosa MB5002 (setting [9]) came out at 0.78 µg/mL (≈ 2.03 µM).

On to `C[C@@H](O)[C@H]1C(=O)N2C(C(=O)O)=C(S[C@@H]3CN[C@H](C(O)CCN)C3)[C@H](C)[C@H]12` (single isomer, unassigned) [Example 9], for which the MIC came out at 0.78 µg/mL (≈ 2.02 µM) with P. aeruginosa MB5002 (setting [9]) and 1.56 µg/mL (≈ 4.05 µM) with P. aeruginosa MB5178 (setting [10]).

Regarding `CNCC[C@@H](O)[C@@H]1C[C@H](SC2=C(C(=O)O)N3C(=O)[C@H]([C@@H](C)O)[C@H]3[C@H]2C)CN1` [Example 19], in [2], the AUC is 13800 ng·h/mL, the Cmax stood at 29000 ng/mL, the time of peak concentration (Tmax) was found to be 10.8 min and the half-life is 7.8 min. Further, the dose excreted at 6 h in [2] came to 62.5%.

One may read the AUC as concentration integrated over time. Read a low AUC as less exposure. What is called Cmax is the peak of the concentration-time curve. The term Tmax denotes the time from dosing to the highest level. In general, half-life refers to the time in which the quantity being followed falls by half. A low value points to rapid decline.

Source of the values: patent publication US5550121A, “Aminoalkylpyrrolidinylthiocarbapenem derivatives” (priority 1991, dated 1996).
